Test results from PubChem BioAssay (NCI).
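Test compounds were applied to cells in 96-well plates for 48 hours at 5 doses. The concentration for 50% growth inhibition is given as GI50. TGI marks complete inhibition of growth.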

Columns and labels:
Experiment in all cases: DTP human tumour cell line panel, 48 h
786-0 renal = test system: 786-0 renal
A498 renal = test system: A498 renal
A549 NSCLC = test system: A549 NSCLC
ACHN renal = test system: ACHN renal
BT-549 breast = test system: BT-549 breast
CAKI-1 renal = test system: CAKI-1 renal
CCRF-CEM leukemia = test system: CCRF-CEM leukemia
COLO 205 colon = test system: COLO 205 colon
DU-145 prostate = test system: DU-145 prostate
EKVX NSCLC = test system: EKVX NSCLC
HCC-2998 colon = test system: HCC-2998 colon
HCT-116 colon = test system: HCT-116 colon
HCT-15 colon = test system: HCT-15 colon
HL-60(TB) leukemia = test system: HL-60(TB) leukemia
HOP-62 NSCLC = test system: HOP-62 NSCLC
HOP-92 NSCLC = test system: HOP-92 NSCLC
HS 578T breast = test system: HS 578T breast
HT29 colon = test system: HT29 colon
IGROV1 ovarian = test system: IGROV1 ovarian
K-562 leukemia = test system: K-562 leukemia
KM12 colon = test system: KM12 colon
LOX IMVI melanoma = test system: LOX IMVI melanoma
M14 melanoma = test system: M14 melanoma
MALME-3M melanoma = test system: MALME-3M melanoma
MCF7 breast = test system: MCF7 breast
MDA-MB-231 breast = test system: MDA-MB-231 breast
MDA-MB-435 = test system: MDA-MB-435
MDA-MB-468 breast = test system: MDA-MB-468 breast
MOLT-4 leukemia = test system: MOLT-4 leukemia
NCI-H226 lung = test system: NCI-H226 lung
NCI-H23 lung = test system: NCI-H23 lung
NCI-H460 lung = test system: NCI-H460 lung
NCI-H522 lung = test system: NCI-H522 lung
NCI/ADR-RES ovarian = test system: NCI/ADR-RES ovarian
OVCAR-3 ovarian = test system: OVCAR-3 ovarian
OVCAR-4 ovarian = test system: OVCAR-4 ovarian
OVCAR-5 ovarian = test system: OVCAR-5 ovarian
OVCAR-8 ovarian = test system: OVCAR-8 ovarian
PC-3 prostate = test system: PC-3 prostate
RPMI-8226 leukemia = test system: RPMI-8226 leukemia
RXF 393 renal = test system: RXF 393 renal
SF-268 CNS = test system: SF-268 CNS
SF-295 CNS = test system: SF-295 CNS
SF-539 CNS = test system: SF-539 CNS
SK-MEL-2 melanoma = test system: SK-MEL-2 melanoma
SK-MEL-28 melanoma = test system: SK-MEL-28 melanoma
SK-MEL-5 melanoma = test system: SK-MEL-5 melanoma
SK-OV-3 ovarian = test system: SK-OV-3 ovarian
SN12C renal = test system: SN12C renal
SNB-19 CNS = test system: SNB-19 CNS
SNB-75 CNS = test system: SNB-75 CNS
SR leukemia = test system: SR leukemia
SW-620 colon = test system: SW-620 colon
T-47D breast = test system: T-47D breast
TK-10 renal = test system: TK-10 renal
U251 CNS = test system: U251 CNS
UACC-257 melanoma = test system: UACC-257 melanoma
UACC-62 melanoma = test system: UACC-62 melanoma
UO-31 renal = test system: UO-31 renal

Structure (SMILES): O=C1Nc2cc(-c3ccc(NS(=O)(=O)c4ccc(C(F)(F)F)cc4)cc3)ccc2/C1=C/c1ccc[nH]1
- GI50 (786-0 renal): 2.55 µM
- TGI (786-0 renal): 6.54 µM
- GI50 (A498 renal): 1.99 µM
- TGI (A498 renal): 7.78 µM
- GI50 (A549 NSCLC): 1.31 µM
- TGI (A549 NSCLC): 2.92 µM
- GI50 (ACHN renal): 2.19 µM
- TGI (ACHN renal): 5.31 µM
- GI50 (BT-549 breast): 1.96 µM
- TGI (BT-549 breast): 5.54 µM
- GI50 (CAKI-1 renal): 2.57 µM
- TGI (CAKI-1 renal): 11.1 µM
- GI50 (CCRF-CEM leukemia): 2.27 µM
- TGI (CCRF-CEM leukemia): 6.82 µM
- GI50 (COLO 205 colon): 2.42 µM
- TGI (COLO 205 colon): 8.25 µM
- GI50 (DU-145 prostate): 1.87 µM
- TGI (DU-145 prostate): 4 µM
- GI50 (EKVX NSCLC): 0.123 µM
- TGI (EKVX NSCLC): 4.13 µM
- GI50 (HCC-2998 colon): 1.91 µM
- TGI (HCC-2998 colon): 4.92 µM
- GI50 (HCT-116 colon): 1.82 µM
- TGI (HCT-116 colon): 3.46 µM
- GI50 (HCT-15 colon): 1.42 µM
- TGI (HCT-15 colon): 3.26 µM
- GI50 (HL-60(TB) leukemia): 2.9 µM
- TGI (HL-60(TB) leukemia): 10.7 µM
- GI50 (HOP-62 NSCLC): 1.66 µM
- TGI (HOP-62 NSCLC): 4.7 µM
- GI50 (HOP-92 NSCLC): 1.1 µM
- TGI (HOP-92 NSCLC): 3.79 µM
- GI50 (HS 578T breast): 1.96 µM
- TGI (HS 578T breast): 10.3 µM
- GI50 (HT29 colon): 2.21 µM
- TGI (HT29 colon): 5.14 µM
- GI50 (IGROV1 ovarian): 3.31 µM
- TGI (IGROV1 ovarian): 15 µM
- GI50 (K-562 leukemia): 2.48 µM
- TGI (K-562 leukemia): 11 µM
- GI50 (KM12 colon): 1.94 µM
- TGI (KM12 colon): 7.83 µM
- GI50 (LOX IMVI melanoma): 1.63 µM
- TGI (LOX IMVI melanoma): 2.98 µM
- GI50 (M14 melanoma): 3.11 µM
- TGI (M14 melanoma): 13 µM
- GI50 (MALME-3M melanoma): 3.05 µM
- TGI (MALME-3M melanoma): 13.6 µM
- GI50 (MCF7 breast): 0.0818 µM
- TGI (MCF7 breast): 1.47 µM
- GI50 (MDA-MB-231 breast): 2.28 µM
- TGI (MDA-MB-231 breast): 8.29 µM
- GI50 (MDA-MB-435): 1.86 µM
- TGI (MDA-MB-435): 3.95 µM
- GI50 (MDA-MB-468 breast): 0.0311 µM
- TGI (MDA-MB-468 breast): 0.309 µM
- GI50 (MOLT-4 leukemia): 2.49 µM
- TGI (MOLT-4 leukemia): 10.8 µM
- GI50 (NCI-H226 lung): 1.1 µM
- TGI (NCI-H226 lung): 6.79 µM
- GI50 (NCI-H23 lung): 1.07 µM
- TGI (NCI-H23 lung): 2.83 µM
- GI50 (NCI-H460 lung): 0.437 µM
- TGI (NCI-H460 lung): 1.77 µM
- GI50 (NCI-H522 lung): 1.44 µM
- TGI (NCI-H522 lung): 3.32 µM
- GI50 (NCI/ADR-RES ovarian): 2.59 µM
- TGI (NCI/ADR-RES ovarian): 8.6 µM
- GI50 (OVCAR-3 ovarian): 1.43 µM
- TGI (OVCAR-3 ovarian): 2.92 µM
- GI50 (OVCAR-4 ovarian): 1.1 µM
- TGI (OVCAR-4 ovarian): 7.33 µM
- GI50 (OVCAR-5 ovarian): 1.8 µM
- TGI (OVCAR-5 ovarian): 7.06 µM
- GI50 (OVCAR-8 ovarian): 1.91 µM
- TGI (OVCAR-8 ovarian): 4.07 µM
- GI50 (PC-3 prostate): 1.57 µM
- TGI (PC-3 prostate): 4.83 µM
- GI50 (RPMI-8226 leukemia): 1.33 µM
- TGI (RPMI-8226 leukemia): 4.25 µM
- GI50 (RXF 393 renal): 1.96 µM
- TGI (RXF 393 renal): 4.37 µM
- GI50 (SF-268 CNS): 1.72 µM
- TGI (SF-268 CNS): 3.86 µM
- GI50 (SF-295 CNS): 2.04 µM
- TGI (SF-295 CNS): 4.67 µM
- GI50 (SF-539 CNS): 1.43 µM
- TGI (SF-539 CNS): 3.26 µM
- GI50 (SK-MEL-2 melanoma): 3.14 µM
- TGI (SK-MEL-2 melanoma): 12.2 µM
- GI50 (SK-MEL-28 melanoma): 2.26 µM
- TGI (SK-MEL-28 melanoma): 5.68 µM
- GI50 (SK-MEL-5 melanoma): 4.13 µM
- TGI (SK-MEL-5 melanoma): 15.6 µM
- GI50 (SK-OV-3 ovarian): 2.2 µM
- TGI (SK-OV-3 ovarian): 11.6 µM
- GI50 (SN12C renal): 1.59 µM
- TGI (SN12C renal): 3.17 µM
- GI50 (SNB-19 CNS): 2.53 µM
- TGI (SNB-19 CNS): 11.3 µM
- GI50 (SNB-75 CNS): 2.29 µM
- TGI (SNB-75 CNS): 13.3 µM
- GI50 (SR leukemia): 1.97 µM
- TGI (SR leukemia): 7 µM
- GI50 (SW-620 colon): 1.87 µM
- TGI (SW-620 colon): 3.68 µM
- GI50 (T-47D breast): 0.23 µM
- TGI (T-47D breast): 3.86 µM
- GI50 (TK-10 renal): 1.27 µM
- TGI (TK-10 renal): 6.71 µM
- GI50 (U251 CNS): 1.61 µM
- TGI (U251 CNS): 3.12 µM
- GI50 (UACC-257 melanoma): 2.39 µM
- TGI (UACC-257 melanoma): 7.33 µM
- GI50 (UACC-62 melanoma): 2.13 µM
- TGI (UACC-62 melanoma): 9.73 µM
- GI50 (UO-31 renal): 1.51 µM
- TGI (UO-31 renal): 10.3 µM
